Measurements as given in ChEMBL document CHEMBL1201862, “PubChem BioAssay data set” (2004).
Each block holds one molecule with its values, some of them ahead of it. Calls of active or inactive are those of the source.

Key:
[1] = biological target: T1, Apoptotic protease-activating factor 1 (Homo sapiens, UniProt O14727); format: functional
T1 sequence (O14727 whole entry): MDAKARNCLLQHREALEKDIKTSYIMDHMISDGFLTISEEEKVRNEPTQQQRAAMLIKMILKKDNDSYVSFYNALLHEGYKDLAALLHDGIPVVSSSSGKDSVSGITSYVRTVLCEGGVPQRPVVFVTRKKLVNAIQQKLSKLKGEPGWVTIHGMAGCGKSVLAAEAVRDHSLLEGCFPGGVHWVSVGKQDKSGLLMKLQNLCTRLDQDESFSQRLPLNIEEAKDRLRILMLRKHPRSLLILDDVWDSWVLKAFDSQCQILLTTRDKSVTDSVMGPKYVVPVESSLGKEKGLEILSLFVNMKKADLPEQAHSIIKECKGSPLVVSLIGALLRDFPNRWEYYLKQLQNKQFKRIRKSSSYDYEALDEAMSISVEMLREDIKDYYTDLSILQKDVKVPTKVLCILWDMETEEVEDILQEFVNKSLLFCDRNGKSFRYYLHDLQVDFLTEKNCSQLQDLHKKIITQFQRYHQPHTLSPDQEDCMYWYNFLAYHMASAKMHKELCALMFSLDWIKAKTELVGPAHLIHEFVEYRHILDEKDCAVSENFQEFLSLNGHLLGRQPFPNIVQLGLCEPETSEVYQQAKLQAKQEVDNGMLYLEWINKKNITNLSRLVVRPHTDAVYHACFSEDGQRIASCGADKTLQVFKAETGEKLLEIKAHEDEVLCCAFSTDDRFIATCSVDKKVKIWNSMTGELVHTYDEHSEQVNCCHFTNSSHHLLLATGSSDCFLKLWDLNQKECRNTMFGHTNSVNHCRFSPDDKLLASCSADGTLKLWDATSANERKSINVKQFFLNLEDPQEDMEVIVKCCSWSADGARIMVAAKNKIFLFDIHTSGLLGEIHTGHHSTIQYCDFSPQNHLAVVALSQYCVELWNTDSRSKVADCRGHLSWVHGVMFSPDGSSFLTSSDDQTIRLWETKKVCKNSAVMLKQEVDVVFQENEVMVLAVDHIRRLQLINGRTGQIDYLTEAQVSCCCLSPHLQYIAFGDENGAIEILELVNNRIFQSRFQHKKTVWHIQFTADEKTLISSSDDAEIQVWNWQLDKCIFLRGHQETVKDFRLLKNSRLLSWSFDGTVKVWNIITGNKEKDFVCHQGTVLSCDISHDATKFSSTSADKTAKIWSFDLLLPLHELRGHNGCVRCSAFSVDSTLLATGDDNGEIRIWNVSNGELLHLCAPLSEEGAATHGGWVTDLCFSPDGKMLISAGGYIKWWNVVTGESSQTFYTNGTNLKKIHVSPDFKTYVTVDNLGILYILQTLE

[2] = biological target: T2, Sentrin-specific protease 8 (Homo sapiens, UniProt Q96LD8); format: functional
T2 sequence (Q96LD8 whole entry): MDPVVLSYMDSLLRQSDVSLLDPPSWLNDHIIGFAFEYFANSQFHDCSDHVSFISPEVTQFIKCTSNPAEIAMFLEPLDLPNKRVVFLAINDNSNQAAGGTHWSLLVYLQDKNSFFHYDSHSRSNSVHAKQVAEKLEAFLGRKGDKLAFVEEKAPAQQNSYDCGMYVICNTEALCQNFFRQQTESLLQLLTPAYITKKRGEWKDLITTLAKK

[3] = biological target: T2, Sentrin-specific protease 8; format: functional; remark: listed apart in the source
Streptococcus = experiment: Group A Streptococcus viability loss, dose response, counter-screen for streptokinase expression inhibitor project, luminescence, BacTiterGlo (AID 1915); format: functional, organism-based;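 also: potency for reduction of bacterial viability or growth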
[4] = test system: Streptococcus sp. 'group A'; experiment: growth inhibition of control SK(-) GAS strain, dose response, counter-screen for streptokinase expression inhibitor project, luminescence, kanamycin, BacTiterGlo, confirmation (AID 1900); format: functional, organism-based
[5] = biological target: DNA (cytosine-5)-methyltransferase 1 (Homo sapiens, UniProt P26358); experiment: DNMT1 methyltransferase inhibitors, confirmation, biochemical, fluorescent molecular beacon (AID 602386); format: functional
DNA (cytosine-5)-methyltransferase 1, sequence (P26358 whole entry): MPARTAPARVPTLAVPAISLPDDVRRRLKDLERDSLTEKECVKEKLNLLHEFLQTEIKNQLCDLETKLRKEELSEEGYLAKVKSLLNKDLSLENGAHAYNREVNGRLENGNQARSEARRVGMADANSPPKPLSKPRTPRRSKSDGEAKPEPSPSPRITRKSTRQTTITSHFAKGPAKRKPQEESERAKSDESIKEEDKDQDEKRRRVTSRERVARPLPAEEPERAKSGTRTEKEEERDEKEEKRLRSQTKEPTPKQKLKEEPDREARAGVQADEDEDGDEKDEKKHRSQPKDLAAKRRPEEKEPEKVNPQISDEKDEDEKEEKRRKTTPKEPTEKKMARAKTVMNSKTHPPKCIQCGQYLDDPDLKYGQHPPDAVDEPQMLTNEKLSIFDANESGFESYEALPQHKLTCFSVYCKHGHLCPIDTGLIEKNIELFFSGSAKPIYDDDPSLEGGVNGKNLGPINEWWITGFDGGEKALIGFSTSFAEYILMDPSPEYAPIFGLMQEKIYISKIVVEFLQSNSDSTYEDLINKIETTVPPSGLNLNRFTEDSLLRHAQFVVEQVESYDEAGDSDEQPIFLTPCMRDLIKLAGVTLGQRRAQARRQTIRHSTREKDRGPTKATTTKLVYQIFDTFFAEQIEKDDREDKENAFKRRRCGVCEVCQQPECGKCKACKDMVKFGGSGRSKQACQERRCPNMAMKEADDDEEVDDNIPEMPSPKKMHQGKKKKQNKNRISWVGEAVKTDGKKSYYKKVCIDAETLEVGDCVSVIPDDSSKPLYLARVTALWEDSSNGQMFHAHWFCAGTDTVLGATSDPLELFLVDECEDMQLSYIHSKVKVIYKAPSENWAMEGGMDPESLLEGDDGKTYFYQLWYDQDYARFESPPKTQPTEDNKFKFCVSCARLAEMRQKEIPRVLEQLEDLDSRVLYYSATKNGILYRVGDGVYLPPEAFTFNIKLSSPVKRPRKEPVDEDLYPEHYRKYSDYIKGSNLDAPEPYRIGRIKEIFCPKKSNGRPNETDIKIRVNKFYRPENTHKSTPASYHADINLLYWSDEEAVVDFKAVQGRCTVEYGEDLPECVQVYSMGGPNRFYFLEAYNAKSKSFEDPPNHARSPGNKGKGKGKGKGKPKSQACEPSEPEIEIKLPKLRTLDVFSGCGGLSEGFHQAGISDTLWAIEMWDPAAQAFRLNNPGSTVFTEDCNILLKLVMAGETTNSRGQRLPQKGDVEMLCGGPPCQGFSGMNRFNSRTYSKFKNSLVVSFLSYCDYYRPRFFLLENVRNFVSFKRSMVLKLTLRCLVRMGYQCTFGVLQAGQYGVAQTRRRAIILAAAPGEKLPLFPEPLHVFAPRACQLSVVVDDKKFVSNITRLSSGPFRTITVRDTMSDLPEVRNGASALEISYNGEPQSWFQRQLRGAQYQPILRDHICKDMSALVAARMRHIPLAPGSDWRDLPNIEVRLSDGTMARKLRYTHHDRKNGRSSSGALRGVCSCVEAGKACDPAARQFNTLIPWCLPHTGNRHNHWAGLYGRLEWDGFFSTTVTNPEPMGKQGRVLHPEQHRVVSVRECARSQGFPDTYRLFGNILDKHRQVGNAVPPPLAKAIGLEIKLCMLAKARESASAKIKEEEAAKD

[6] = Luminescence Cell-Based Dose Retest to Confirm Inhibitors of Cancer Stem Cells. [Related pubchem assays (depositor defined):AID2717, AID2721]; format: functional; conditions: Homo sapiens
Caspase-3 = biological target: T3, Caspase-3 (Homo sapiens, UniProt P42574); experiment: SAR Analysis of small molecule inhibitors of Sentrin-specific proteases (SENPs) using a Caspase-3 Selectivity assay. [Related pubchem assays (depositor defined):AID2540, AID2599, AID434973, AID489001]; format: functional
T3 sequence (P42574 whole entry): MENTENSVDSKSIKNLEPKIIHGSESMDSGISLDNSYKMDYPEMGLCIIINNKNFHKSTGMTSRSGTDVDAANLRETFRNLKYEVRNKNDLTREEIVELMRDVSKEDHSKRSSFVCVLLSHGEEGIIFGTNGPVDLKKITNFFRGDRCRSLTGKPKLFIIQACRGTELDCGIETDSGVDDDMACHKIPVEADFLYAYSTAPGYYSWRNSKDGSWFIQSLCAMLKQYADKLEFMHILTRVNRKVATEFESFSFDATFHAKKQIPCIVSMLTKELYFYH

[7] = biological target: T4, Sentrin-specific protease 7 (Homo sapiens, UniProt Q9BQF6); experiment: SENP7 protease inhibitors, SAR follow-up, biochemical, luminescence (AID 504497); format: functional
T4 sequence (Q9BQF6 whole entry): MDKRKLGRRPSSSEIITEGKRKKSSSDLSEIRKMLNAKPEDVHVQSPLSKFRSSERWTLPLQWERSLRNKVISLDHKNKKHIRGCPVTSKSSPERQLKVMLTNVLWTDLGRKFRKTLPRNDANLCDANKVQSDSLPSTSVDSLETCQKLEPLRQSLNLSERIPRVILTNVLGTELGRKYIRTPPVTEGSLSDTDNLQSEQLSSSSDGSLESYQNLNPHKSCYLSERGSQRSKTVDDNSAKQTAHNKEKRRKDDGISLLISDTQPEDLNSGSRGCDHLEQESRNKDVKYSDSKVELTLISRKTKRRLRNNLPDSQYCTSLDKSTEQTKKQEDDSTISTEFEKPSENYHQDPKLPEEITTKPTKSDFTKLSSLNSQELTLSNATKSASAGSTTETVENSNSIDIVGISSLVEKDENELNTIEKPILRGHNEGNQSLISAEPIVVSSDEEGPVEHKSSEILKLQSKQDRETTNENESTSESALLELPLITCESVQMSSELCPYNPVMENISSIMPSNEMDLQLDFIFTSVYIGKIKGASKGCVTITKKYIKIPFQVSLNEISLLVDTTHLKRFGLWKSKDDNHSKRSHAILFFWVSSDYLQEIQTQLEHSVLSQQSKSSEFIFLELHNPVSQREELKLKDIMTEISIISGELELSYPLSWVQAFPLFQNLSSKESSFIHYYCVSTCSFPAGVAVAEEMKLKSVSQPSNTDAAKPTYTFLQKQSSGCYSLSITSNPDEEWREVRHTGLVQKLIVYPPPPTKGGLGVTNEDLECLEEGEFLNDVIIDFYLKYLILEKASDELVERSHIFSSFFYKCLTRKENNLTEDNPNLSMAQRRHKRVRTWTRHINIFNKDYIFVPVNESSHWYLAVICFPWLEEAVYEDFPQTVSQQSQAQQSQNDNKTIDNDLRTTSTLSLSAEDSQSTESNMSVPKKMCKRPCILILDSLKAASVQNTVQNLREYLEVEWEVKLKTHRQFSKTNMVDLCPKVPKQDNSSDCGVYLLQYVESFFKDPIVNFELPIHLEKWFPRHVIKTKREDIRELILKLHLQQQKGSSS

[8] = biological target: T2, Sentrin-specific protease 8; experiment: SENP8 protease inhibitors, SAR follow-up, biochemical, luminescence (AID 504501); format: functional
[9] = biological target: T5, Sentrin-specific protease 6 (Homo sapiens, UniProt Q9GZR1); experiment: SAR Analysis of small molecule inhibitors of Sentrin-specific protease 6 (SENP6) using a Luminescent assay. [Related pubchem assays (depositor defined):AID2582, AID2599]; format: functional
T5 sequence (Q9GZR1 whole entry): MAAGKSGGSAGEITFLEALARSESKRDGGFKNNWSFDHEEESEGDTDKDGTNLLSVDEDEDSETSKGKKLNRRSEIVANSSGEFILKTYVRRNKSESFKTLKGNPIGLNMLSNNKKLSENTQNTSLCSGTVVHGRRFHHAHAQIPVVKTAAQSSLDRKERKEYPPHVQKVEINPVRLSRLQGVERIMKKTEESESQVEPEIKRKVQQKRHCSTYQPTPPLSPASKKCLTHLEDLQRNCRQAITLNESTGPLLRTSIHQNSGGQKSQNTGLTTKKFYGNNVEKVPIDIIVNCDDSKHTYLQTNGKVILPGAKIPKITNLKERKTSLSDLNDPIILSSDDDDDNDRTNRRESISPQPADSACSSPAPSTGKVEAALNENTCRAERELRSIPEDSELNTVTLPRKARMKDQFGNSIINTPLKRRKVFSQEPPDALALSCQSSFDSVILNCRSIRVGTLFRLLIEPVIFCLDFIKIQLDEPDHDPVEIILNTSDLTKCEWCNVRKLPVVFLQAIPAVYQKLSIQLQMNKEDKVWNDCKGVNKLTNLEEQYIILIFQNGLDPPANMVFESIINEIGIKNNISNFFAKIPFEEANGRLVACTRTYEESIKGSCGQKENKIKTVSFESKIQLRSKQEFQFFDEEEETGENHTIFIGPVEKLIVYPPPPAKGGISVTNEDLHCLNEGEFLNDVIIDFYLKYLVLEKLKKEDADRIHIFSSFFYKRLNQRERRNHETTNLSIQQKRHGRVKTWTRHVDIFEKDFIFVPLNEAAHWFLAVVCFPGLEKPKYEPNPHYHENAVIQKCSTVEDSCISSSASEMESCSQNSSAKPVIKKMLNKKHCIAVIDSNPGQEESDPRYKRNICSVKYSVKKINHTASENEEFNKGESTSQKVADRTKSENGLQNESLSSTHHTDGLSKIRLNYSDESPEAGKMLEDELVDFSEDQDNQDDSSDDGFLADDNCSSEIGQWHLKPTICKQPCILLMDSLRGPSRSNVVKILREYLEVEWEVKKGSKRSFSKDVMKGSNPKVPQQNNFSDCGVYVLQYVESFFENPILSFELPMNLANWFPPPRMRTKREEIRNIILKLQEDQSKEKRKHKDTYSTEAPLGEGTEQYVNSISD

[10] = biological target: Ras and Rab interactor 1/Tyrosine-protein kinase ABL1 (Homo sapiens, UniProt P00519+Q13671); format: functional;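 also: biochemical TR-FRET dose-response test measuring inhibition of binding between Rin1 and Abl proteins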
Ras and Rab interactor 1/Tyrosine-protein kinase ABL1, sequence (P00519 whole entry): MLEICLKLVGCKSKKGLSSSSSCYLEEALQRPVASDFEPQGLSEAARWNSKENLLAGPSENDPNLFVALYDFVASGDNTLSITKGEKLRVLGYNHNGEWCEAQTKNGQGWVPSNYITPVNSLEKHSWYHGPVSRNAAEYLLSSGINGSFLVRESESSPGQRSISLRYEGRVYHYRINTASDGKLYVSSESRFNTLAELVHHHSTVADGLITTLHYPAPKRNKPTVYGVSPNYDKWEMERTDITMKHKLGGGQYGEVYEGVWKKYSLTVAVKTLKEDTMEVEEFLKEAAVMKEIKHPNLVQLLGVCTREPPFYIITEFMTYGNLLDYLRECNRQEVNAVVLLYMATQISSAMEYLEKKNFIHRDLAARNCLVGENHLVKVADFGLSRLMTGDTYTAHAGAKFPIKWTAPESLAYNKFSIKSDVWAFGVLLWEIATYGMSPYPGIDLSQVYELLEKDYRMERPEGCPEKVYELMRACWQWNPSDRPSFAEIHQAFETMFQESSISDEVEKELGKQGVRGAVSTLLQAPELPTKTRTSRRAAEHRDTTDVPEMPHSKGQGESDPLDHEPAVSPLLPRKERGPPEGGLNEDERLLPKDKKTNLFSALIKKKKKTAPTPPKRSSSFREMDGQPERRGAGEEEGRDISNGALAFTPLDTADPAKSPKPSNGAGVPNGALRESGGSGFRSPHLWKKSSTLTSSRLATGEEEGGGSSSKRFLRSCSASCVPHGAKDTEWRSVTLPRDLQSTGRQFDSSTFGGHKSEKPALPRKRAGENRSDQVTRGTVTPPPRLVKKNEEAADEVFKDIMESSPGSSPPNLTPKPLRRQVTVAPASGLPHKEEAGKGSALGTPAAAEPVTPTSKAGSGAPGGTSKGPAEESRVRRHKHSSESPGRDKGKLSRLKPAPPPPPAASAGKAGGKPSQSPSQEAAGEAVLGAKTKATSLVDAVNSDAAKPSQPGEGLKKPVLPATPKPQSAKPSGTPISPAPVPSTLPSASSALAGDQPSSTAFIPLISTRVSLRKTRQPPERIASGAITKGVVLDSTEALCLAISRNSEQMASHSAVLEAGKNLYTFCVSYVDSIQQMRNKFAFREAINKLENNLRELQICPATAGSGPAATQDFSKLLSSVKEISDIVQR
Ras and Rab interactor 1/Tyrosine-protein kinase ABL1, sequence (Q13671 whole entry): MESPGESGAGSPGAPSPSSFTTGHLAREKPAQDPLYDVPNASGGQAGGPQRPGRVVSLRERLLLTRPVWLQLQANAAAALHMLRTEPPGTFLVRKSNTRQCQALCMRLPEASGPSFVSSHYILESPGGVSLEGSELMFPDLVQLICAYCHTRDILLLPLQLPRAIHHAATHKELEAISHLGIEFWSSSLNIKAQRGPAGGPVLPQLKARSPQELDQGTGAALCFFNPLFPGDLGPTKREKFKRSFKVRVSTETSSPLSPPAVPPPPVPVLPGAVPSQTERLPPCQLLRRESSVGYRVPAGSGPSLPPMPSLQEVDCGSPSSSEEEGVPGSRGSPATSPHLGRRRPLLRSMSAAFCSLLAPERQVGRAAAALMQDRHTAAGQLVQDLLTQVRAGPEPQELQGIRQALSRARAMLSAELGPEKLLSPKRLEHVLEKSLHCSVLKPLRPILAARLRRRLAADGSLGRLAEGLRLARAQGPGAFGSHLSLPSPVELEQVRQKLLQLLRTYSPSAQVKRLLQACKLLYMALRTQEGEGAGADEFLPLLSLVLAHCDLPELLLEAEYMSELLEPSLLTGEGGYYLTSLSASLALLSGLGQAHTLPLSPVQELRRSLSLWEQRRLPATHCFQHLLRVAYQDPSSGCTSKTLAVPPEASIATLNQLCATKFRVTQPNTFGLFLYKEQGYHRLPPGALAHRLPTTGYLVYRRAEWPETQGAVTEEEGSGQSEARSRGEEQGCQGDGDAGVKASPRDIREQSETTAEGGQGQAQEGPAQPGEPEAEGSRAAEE

Protein Wnt-3a = Protein Wnt-3a (Mus musculus, UniProt P27467); experiment: Wnt3a-driven reporter signaling inhibition, dose response, selectivity assay for Gli-SUFU antagonist project, Wnt-LIGHT cells, luminescence (AID 651570); format: functional; conditions: read-out: IC50_Mean;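 also: Wnt-LIGHT reporter cells stimulated with conditioned medium from Wnt3a-producing cells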
Protein Wnt-3a, sequence (P27467 whole entry): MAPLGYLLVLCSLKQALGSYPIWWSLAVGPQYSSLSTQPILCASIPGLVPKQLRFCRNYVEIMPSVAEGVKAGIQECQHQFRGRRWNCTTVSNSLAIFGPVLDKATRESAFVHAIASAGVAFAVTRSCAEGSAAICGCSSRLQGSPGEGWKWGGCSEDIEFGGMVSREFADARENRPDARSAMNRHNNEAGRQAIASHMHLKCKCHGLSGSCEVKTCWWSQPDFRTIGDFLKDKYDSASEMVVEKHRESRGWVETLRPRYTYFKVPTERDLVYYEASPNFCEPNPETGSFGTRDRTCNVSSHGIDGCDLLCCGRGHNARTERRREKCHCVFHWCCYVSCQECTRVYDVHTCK

[11] = HepG2 cell cytotoxicity, dose response, cytotoxicity control, ATP luminescence, cherry-pick, set 6 (AID 1053125); format: functional, cell-based
[12] = biological target: T6, Low molecular weight phosphotyrosine protein phosphatase (Homo sapiens, UniProt P24666); format: functional; conditions: read-out: IC50_Mean;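 also: Dose-response confirmation assay measuring inhibition of LMPTP enzyme activity by fluorescence intensity read-out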
T6 sequence (P24666 whole entry): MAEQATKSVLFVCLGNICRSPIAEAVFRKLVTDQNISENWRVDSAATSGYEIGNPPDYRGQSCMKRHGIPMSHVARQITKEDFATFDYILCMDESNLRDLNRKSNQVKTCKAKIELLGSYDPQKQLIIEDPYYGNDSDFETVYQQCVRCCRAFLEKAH

- IC50 (Caspase-3): 6.02 µM (active)
- IC50 [7]: 3.21 µM (active)
- IC50 [9]: 6.76 µM (active)
SMILES: Cc1ccc(N/N=C/c2c[nH]c3ccccc23)cc1
- IC50 [8]: 7.41 µM (active)

- IC50 [10]: 22.3 µM (inactive)
SMILES: COc1ccccc1CN1C[C@@H]2C[C@@H](c3ccc4nsnc4c3)N3CCC[C@@]23C1=O

- IC50 (Protein Wnt-3a): 25.5 µM (inactive)
SMILES: COc1ccc(NC(=S)N2CCC(Cc3ccccc3)CC2)cc1

- IC50 (Protein Wnt-3a): 26.3 µM (inactive)
SMILES: CCn1c(/C=C/Nc2ccccc2)[n+](CC)c2cc(Cl)ccc21

- IC50 (Caspase-3): > 99 µM (inactive)
- IC50 [7]: > 99 µM (inactive)
- IC50 [9]: > 99 µM (inactive)
SMILES: COC(=O)c1nn(-c2ccccc2)c2c1C(c1ccc(OC)cc1)(C(F)(F)F)N/C(=N\c1ccc(C)cc1)O2 (stereo not given)
- IC50 [8]: > 99 µM (inactive)

The remaining lines, values behind:

SMILES: CC1=NN(c2ccc(C(F)(F)F)cn2)C(=O)C1
- IC50 [1]: 17.7 µM (active)
- IC50 [2]: 10.1 µM (active)
- IC50 [3]: 15.6 µM (active)

SMILES: CC(C)COc1ccc(-c2nn(-c3ccccc3)cc2/C=C2/SC(=S)N(CC(=O)O)C2=O)cc1
- EC50 (Streptococcus): 4.38 µM (active)
- EC50 [4]: 2.85 µM (active)
- IC50 [5]: 5.58 µM (active)
- AC50 [6]: 2.87 µM (active)

SMILES: COc1cccc2sc(NC(=O)c3ccc(S(=O)(=O)N(C)C4CCCC4)cc3)nc12
- IC50 (Caspase-3): > 99 µM (inactive)
- IC50 [7]: > 99 µM (inactive)
- IC50 [8]: > 99 µM (inactive)
- IC50 [9]: > 99 µM (inactive)

SMILES: CSCCC(c1nnnn1C1CCCCC1)N1CCC(n2c(O)nc3ccccc32)CC1 (stereo not given)
- IC50 [10]: 6.82 µM (active)

SMILES: Cc1ccc2nc3c(cc(C(=O)NCc4ccccc4)c(=N)n3CCCn3ccnc3)c(=O)n2c1
- AC50 [11]: 48 µM (active)
- IC50 [12]: 29.8 µM (inactive)
